Entries after “also recorded” stand apart in the source; their conditions may differ.
How the values were obtained:
Mmp9 [1] = test: MMP9 activity by gelatin zymography in conditioned media of mouse peritoneal macrophages cultured on fibronectin; type: cell-based; conditions: for maximal inhibition of fibronectin-induced MMP9 production/activity: both wild type and Arhgef1-deficient macrophages, aspirin up to 20 mM, L-161,982, PTA2 1.56 or 6.25 μM, L-655,240 28 μM
Description: FIG. 5. TP-induced MMP9 production is only partially dependent on COX activity. A) PEMs were cultured on fibronectin for 24 hours with 5% FCS, washed then treated with different concentration of aspirin or 1.6 μM PTXA2 at for an additional 24 hours without FCS. MMP9 activity was determined by zymography from supernatants of wild type (open) or Arhgef1−/− (filled) macrophages. Activity was normalized to activity generated from cells cultured on fibronectin without treatment. B) MMP9 activity in conditioned media from peripheral blood monocytes cultured as described in panel A. Data represents mean±SE (n=3 independent donors).
FIG. 6. The antioxidant mimetic MnTE-2PyP reduces MMP9 activity in macrophages. PEMs were cultured on fibronectin for 24 hours with 5% FCS, washed then treated with MnTE-2PyP at the indicated concentrations for an additional 24 hours without FCS. MMP9 activity was determined by zymography from supernatants of wild type (open) or Arhgef1−/− (filled) macrophages. Activity was normalized to activity generated from cells cultured on fibronectin without treatment.
FIG. 11. Cyclooxygenase activity but not EP4 receptor signaling is required for MMP9 production by murine macrophages cultured on fibronectin. A, representative MMP9 gelatin zymograms of conditioned media from peritoneal macrophages cultured on either plastic (ctl) or FN and treated with increasing concentrations of aspirin (1.25, 5.0, and 20 mM, respectively). Wild type (+/+) and Arhgef1^−/− (−/−) samples from separate zymograms are shown. Molecular weight standards and respective enzymatic activities of MMP9 and MMP2 are shown. B, quantitation of MMP9 activity as determined by densitometric analysis of zymograms in A. MMP 9 activity is shown in arbitrary units and represents n=6 for both wild type (open bars) and Arhgef1^−/− (black bars) samples. The results are compiled from two independent experiments. The data represent the means±S.E. *, p<0.05 Student's two-tailed t test compared with conditioned media from cells cultured on plastic. #, p<0.05 Student's two-tailed test comparing conditioned media from wild type cells to Arhgef1^−/− cells cultured under identical conditions. $, p<0.05 Student's two-tailed t test compared with conditioned media from cells cultured on fibronectin. C, quantitation of MMP9 activity in conditioned media from macrophages cultured on fibronectin in the presence of the EP4 antagonist L161,982 (10 μM). MMP9 activity was normalized to fibronectin response for each genotype. The results are compiled from two independent experiments with wild type (open bars, n=5) and Arhgef1^−/− (black bars, n=5) samples. The data represent the means±S.E. *, p<0.05 Student's two-tailed t test compared with conditioned media from cells cultured on plastic. #, p<0.05 Student's two-tailed t test compared with conditioned media from cells cultured on fibronectin.
FIG. 12. Thromboxane receptor signaling is necessary for fibronectin-induced MMP9 production by macrophages and is attenuated by Arhgef1. A, representative gelatin zymograms of conditioned media from macrophages cultured on plastic (ctl) or FN and treated with 1.56 or 6.25 μM of the thromboxane receptor antagonist PTA2. Wild type (+/+) and Arhgef1^−/− (−/−) samples from separate zymograms are shown. B, quantitation of MMP9 activity as determined by densitometric analysis of zymograms in A. The results are representative of two independent experiments. C, representative zymograms from conditioned media from macrophages cultured on plastic or fibronectin and treated with 28 μM of the thromboxane receptor antagonist L-655,240. D, quantitation of MMP9 activity as determined by densitometric analysis of zymograms in C. The results are compiled from two independent experiments with n=4 for both wild type (open bars) and Arhgef1^−/− (black bars) samples. […]

MMP2 = MMP2 activity by gelatin zymography in conditioned media of mouse peritoneal macrophages cultured on fibronectin; type: cell-based; conditions: wild type and Arhgef1−/− macrophages; 20 mM aspirin or 28 μM L-655,240
Description: FIG. 12. Thromboxane receptor signaling is necessary for fibronectin-induced MMP9 production by macrophages and is attenuated by Arhgef1. A, representative gelatin zymograms of conditioned media from macrophages cultured on plastic (ctl) or FN and treated with 1.56 or 6.25 μM of the thromboxane receptor antagonist PTA2. Wild type (+/+) and Arhgef1^−/− (−/−) samples from separate zymograms are shown. B, quantitation of MMP9 activity as determined by densitometric analysis of zymograms in A. The results are representative of two independent experiments. C, representative zymograms from conditioned media from macrophages cultured on plastic or fibronectin and treated with 28 μM of the thromboxane receptor antagonist L-655,240. D, quantitation of MMP9 activity as determined by densitometric analysis of zymograms in C. The results are compiled from two independent experiments with n=4 for both wild type (open bars) and Arhgef1^−/− (black bars) samples. […] E, MMP2 activity was quantitated in conditioned media as previously described for MMP9. […] The data represent the means±S.E. F, MMP9 activity was quantitated as previously described and normalized to a percentage of fibronectin response for each genotype. […] G, relative Mmp9 expression was measured by qPCR in macrophages cultured on fibronectin in the presence of the thromboxane receptor agonist (U-46619, 10 nM), S1P (40 nM), or LPA (10 μM). […]

Mmp9 [2] = test: Mmp9 expression by qPCR in mouse peritoneal macrophages cultured on fibronectin; type: cell-based
Description: (§1) FIG. 4. TP signaling is required for MMP9 production in vitro and in vivo. A) Macrophage Mmp9 expression after culture on fibronectin for 24 hrs in media/vehicle (−), 40 nM S1P, 10 μM LPA, 10 nM U-46619 (TP agonist) or 6 μM PTXA2 (TP antagonist). Data represent normalized mean±SE. B) Arhgef1−/− mice (n=16) were exposed to aerosolized PBS (n=16), 220 μM PTXA2 (n=6) or 190 μM U-46619 (n=10) for 20 minutes and BAL harvested 1 day later and MMP activity measured.
FIG. 12. Thromboxane receptor signaling is necessary for fibronectin-induced MMP9 production by macrophages and is attenuated by Arhgef1. A, representative gelatin zymograms of conditioned media from macrophages cultured on plastic (ctl) or FN and treated with 1.56 or 6.25 μM of the thromboxane receptor antagonist PTA2. Wild type (+/+) and Arhgef1^−/− (−/−) samples from separate zymograms are shown. B, quantitation of MMP9 activity as determined by densitometric analysis of zymograms in A. The results are representative of two independent experiments. C, representative zymograms from conditioned media from macrophages cultured on plastic or fibronectin and treated with 28 μM of the thromboxane receptor antagonist L-655,240. D, quantitation of MMP9 activity as determined by densitometric analysis of zymograms in C. The results are compiled from two independent experiments with n=4 for both wild type (open bars) and Arhgef1^−/− (black bars) samples. The data represent the means±S.E. *, p<0.05 Student's two-tailed t test compared with conditioned media from cells cultured on plastic. #, p<0.05 Student's two-tailed t test comparing conditioned media from wild type cells to Arhgef1^−/− cells cultured under identical conditions. $, p<0.05 Student's two-tailed t test compared with conditioned media from cells cultured on fibronectin. E, MMP2 activity was quantitated in conditioned media as previously described for MMP9. The results are compiled from four independent experiments with n=10 for wild type (open bars) and Arhgef1^−/− (black bars) samples cultured on either plastic or fibronectin. For cells treated with 20 mM aspirin, n=6 for wild type (open bars) and Arhgef1^−/− (black bars) samples. For cells treated with 28 μM L-655,240, n=4 for wild type (open bars) and Arhgef1^−/− (black bars) samples. The data represent the means±S.E. F, MMP9 activity was quantitated as previously described and normalized to a percentage of fibronectin response for each genotype. The cells were either untreated or treated with 0.5% Me2SO or 28 μM L-655,240. The results are compiled from two independent experiments with n=3 for all conditions and genotypes. The data represent the means±S.E. *, p<0.05 Student's two-tailed t test compared with conditioned media from cells cultured on fibronectin. G, relative Mmp9 expression was measured by qPCR in macrophages cultured on fibronectin in the presence of the thromboxane receptor agonist (U-46619, 10 nM), S1P (40 nM), or LPA (10 μM). […] Wild type (open bars, n=12, 6, 3, and 3 for fibronectin, +U-46619, +S1P, and +LPA, respectively) and Arhgef1^−/− (black bars, n=14, 6, 3, and 2, respectively) from at least two independent experiments. The data represent the means±S.E. *, p<0.05 Student's two-tailed t test compared with conditioned media from cells cultured on fibronectin, #, p<0.05 Student's two-tailed t test comparing conditioned media from wild type cells to Arhgef1^−/− cells cultured under identical conditions. […]

Mmp9 [3] = test: MMP9 activity in BAL of Arhgef1−/− mice after aerosol exposure; type: in vivo, mouse; conditions: inhalation of aerosol 20 min (220 μM PTXA2, 190 μM U-46619), BAL 24 hours later
Description: as §1

MMP9 [4] = test: MMP9 activity by gelatin zymography, peripheral blood monocytes from COPD patients on fibronectin; type: cell-based, human; conditions: monocytes from 3 COPD patients; dose response 0.4 μM to 260 μM
Description: FIG. 17. Seratrodast (AA-2414) treatment on peripheral blood monocytes from 3 COPD patients. Generated dose response curve going firm 0.4 μM to 260 μM. Measured response by gelatin zymography of conditioned media. A is a representative zymogram from a single individual COPD patient. B depicts results compiled from three COPD patients. *, p<0.05 for ctl vs FN; #, p<0.05 FN vs FN+seratrodast.
For other human studies, we quantitated MMP9 by ELISA in conditioned medium (ELISA TECH, Aurora, Colo.).
Novex (Invitrogen) zymogram 10% gelatin gels were used for zymography as indicated per the manufacturer's instructions on conditioned media. Protease activity was detected as a loss of gelatin at the molecular weight of the indicated MMP and quantified by densitometric analysis using ImageJ (National Institutes of Health) software.
As another example, the thromboxane receptor antagonist seratrodast (AA-2414) was used on peripheral blood monocytes from 3 COPD patients and data collected as shown in FIG. 17.

[5] = wild type and Arhgef1-deficient macrophages on fibronectin, 40 nM S1P, 10 μM LPA, 6 μM PTXA2, 24 h

CCCCc1nn(-c2ccccc2C(F)(F)F)c(=O)n1Cc1ccc(-c2ccccc2S(=O)(=O)NC(=O)c2sccc2C)cc1 [L-161,982] was tested, and the “maximal inhibition of fibronectin-induced MMP9 production/activity” value (Mmp9 [1]) was −40%.

For Cc1c(CC(C)(C)C(=O)O)n(Cc2ccc(Cl)cc2)c2ccc(F)cc12 [L-655,240, 1-[(4-Chlorophenyl)methyl]-5-fluoro-α,α,3-trimethyl-1H-indole-2-propanoic acid], the “maximal inhibition of fibronectin-induced MMP9 production/activity” value (Mmp9 [1]) was −90%, the “fibronectin-mediated MMP9 activity (effect in words)” value (Mmp9 [1]; mouse macrophages, wild type and Arhgef1−/−, 1.6 μM PTXA2, 28 μM L-655,240) was “significantly reduced MMP9 activity” and the MMP2 activity (MMP2) was “not affected”.

CCCCCCCCCCCCC/C=C/[C@@H](O)[C@@H](N)COP(=O)(O)O [S1P, sphingosine-1-phosphate] was tested, and the Mmp9 expression (Mmp9 [2]; [5]) was “slight decrease in Mmp9 expression; also recorded: modestly depress Mmp9 expression”.

In the case of CCCCC[C@H](O)/C=C/[C@@H]1[C@@H](C/C=C\CCCC(=O)O)[C@H]2CO[C@@H]1C2 [U-46619], the Mmp9 expression (Mmp9 [2]; Arhgef1-deficient macrophages on fibronectin, 10 nM U-46619) is reported as “expressed significantly more Mmp9; also recorded: considerably increased Mmp9 expression”, the Mmp9 expression (Mmp9 [2]; wild type macrophages on fibronectin, 10 nM U-46619) is reported as “did not affect wild type cells” and the “MMP9 activity in BAL” value (Mmp9 [3]) is reported as “dramatically increased MMP9 activity”.

For CC1=C(C)C(=O)C(C(CCCCCC(=O)O)c2ccccc2)=C(C)C1=O (stereo not shown) [seratrodast, 7-phenyl-7-(2,4,5-trimethyl-3,6-dioxocyclohexa-1,4-dien-1-yl)heptanoic acid], the “MMP9 activity versus dose” value (MMP9 [4]) was “inverse relationship between MMP9 activity and seratrodast dose”.

With lysophosphatidic acid [LPA] the Mmp9 expression (Mmp9 [2]; [5]) was “slight decrease in Mmp9 expression; also recorded: modestly depress Mmp9 expression”.
